Source: PubChem BioAssay (NCI)
Values joined by “and” are separate entries in the source; they are usually repeats but may differ in a detail not shown here. Equal values may be shown once.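 Cultured in 96-well plates, cells were exposed to test compound for 48 hours across five concentrations. GI50: concentration for 50% inhibition of growth. TGI denotes the concentration required for complete inhibition of growth.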

How the values were obtained:
Test in all cases: inhibition of tumour cell growth, NCI panel, 48 h
U251 CNS = system: U251 CNS
OVCAR-4 ovarian = system: OVCAR-4 ovarian
UO-31 renal = system: UO-31 renal
RXF 393 renal = system: RXF 393 renal
HT29 colon = system: HT29 colon
NCI-H460 lung = system: NCI-H460 lung
SF-268 CNS = system: SF-268 CNS
786-0 renal = system: 786-0 renal
NCI-H226 lung = system: NCI-H226 lung

SMILES	GI50 (U251 CNS)	TGI (U251 CNS)	GI50 (OVCAR-4 ovarian)	TGI (OVCAR-4 ovarian)	GI50 (UO-31 renal)	TGI (UO-31 renal)	GI50 (RXF 393 renal)	TGI (RXF 393 renal)	GI50 (HT29 colon)	TGI (HT29 colon)	GI50 (NCI-H460 lung)	TGI (NCI-H460 lung)	GI50 (SF-268 CNS)	TGI (SF-268 CNS)	GI50 (786-0 renal)	TGI (786-0 renal)	GI50 (NCI-H226 lung)	TGI (NCI-H226 lung)
CSc1nc2c(c(=O)[nH]1)N=C1c3ccccc3C(=O)C1C(c1ccccc1)N2 (stereo not given)	3.52 µM	> 100 µM	5.62 µM	> 100 µM	5.23 µM	> 100 µM	22 µM	> 100 µM	2.97 µM	> 100 µM	3.16 µM	38.1 µM	4.55 µM	> 100 µM	6.44 µM	> 100 µM	4.2 µM	> 100 µM
Cc1cc(I)cc(CN(C)CCCCN2CCCCC2)c1O	13.7 µM	31.2 µM	28.3 µM	> 100 µM	14.2 µM	36.6 µM	12.9 µM	32.6 µM	3.21 µM	14.2 µM	13.2 µM	26.7 µM	12.5 µM	27.3 µM	12.6 µM	25.4 µM	25.7 µM	> 100 µM
CC/C=C\CCC/C=C1/C(=O)C=C[C@@H]1C/C=C\CCCC(=O)OC	4.22 µM	14.5 µM	4.27 µM	16.4 µM	2.04 µM	5.15 µM	2.6 µM	6.02 µM	2.14 µM	3.87 µM	3.9 µM	14.2 µM	4.79 µM	22.1 µM	3.74 µM	11.4 µM	3.25 µM	9.64 µM
Cc1ccc(NC2=C(Cl)C(=O)N(Cc3ccccc3)C2=O)cc1O	18.7 µM	84.6 µM	79.3 µM	> 100 µM	82.2 µM	> 100 µM	52 µM	> 100 µM	–	–	34 µM	> 100 µM	31.7 µM	> 100 µM	22.6 µM	> 100 µM	18.1 µM	60.6 µM
O=C(Nc1ccc(Cl)c(Cl)c1)Nc1ccc(Cl)c(Cl)c1	2.67 µM and 1.77 µM	11.2 µM and 5.14 µM	2.98 µM and 3.57 µM	14.6 µM and 47.7 µM	2.25 µM and 2.74 µM	7.78 µM and 8.91 µM	2.81 µM and 2.57 µM	11.6 µM and 6.57 µM	3.27 µM and 2.43 µM	12.9 µM and 6.82 µM	2.85 µM and 2.24 µM	10.6 µM and 8.59 µM	3.92 µM and 3.88 µM	15.1 µM and 14.5 µM	3.79 µM and 3.21 µM	14.4 µM and 13 µM	3.05 µM and 3.22 µM	15.2 µM and 15.8 µM
CCCCCN(CCCCC)CC(O)c1cc(C)c2ccc3cc(C(C)C)ccc3c2c1 (stereo not given)	1.9 µM	3.82 µM	1.92 µM	3.75 µM	1.48 µM	2.99 µM	1.57 µM	3.1 µM	–	–	1.97 µM	4.05 µM	2.14 µM	4.26 µM	1.79 µM	3.41 µM	1.85 µM	3.97 µM
CC1=C(C(=O)Nc2ccc(Cl)c(Cl)c2)C(c2cccc(Oc3ccccc3)c2)NC(=S)N1 (stereo not given)	7.84 µM	14.8 µM	7.56 µM	16.5 µM	7.63 µM	17.6 µM	7.33 µM	22.1 µM	–	–	7.57 µM	14.4 µM	6.1 µM	12.9 µM	8.29 µM	17.4 µM	9.68 µM	19.5 µM
